According to patent US8338488B2, “Use of at least one oxime derivative of 3,5-seco-4-nor-cholestane as antioxidants” (Trophos, priority 2007, dated 2012):

Key:
[1] = Chemical stability of the powder under ICH storage conditions, total impurities by GC-FID; type: physicochemical; conditions: for total impurities: powder
Procedure: These analyses were carried out using a gas chromatography method coupled with an FID detector. This method makes it possible to quantify the impurities at a level of 0.2%.

[2] = Pharmacokinetics in the rat, oral and intravenous routes; type: in vivo; conditions: 500 mg/kg by oral route, suspension in corn oil, i.v. reference in cremophor/ethanol/water
Procedure: A study of pharmacokinetics with administration by oral route in suspension in corn oil and by intra-venous route in solution in cremophor/ethanol/water (5%, 10%, 85%) made it possible to calculate the bioavailability of the product. The assay of the product in the plasma is carried out by a high pressure liquid chromatography method coupled with mass spectrometry.

[3] = Oxidation of cumene to cumene hydroperoxide by oxygen with AIBN, assayed by HPLC-UV; conditions: for % of reduction of the oxidation of the cumene / Area of the signal, in relative units, of the cumene hydroperoxide: 2 equivalents of AIBN, 2 hours 45° C.
Procedure: The oxidation of cumene at atmospheric pressure and at 37° C. by oxygen is known and described in the presence of a radical initiator such as AIBN (azobisisobutyronitrile) (Blanchard H. S., J. Am. Chem. Soc. 1959, 81, 4548). A recent publication used this reaction to classify the antioxidant potential of known products such as vitamin E (which is the universal reference), BHT (butylated hydroxytoluene) and other products.
In the following experiment we reproduced the same experimental conditions as those described in the publication of Becker D. A. et al. (J. Am. Chem. Soc. 2002, 124, 4678-4684). A high pressure liquid chromatography method coupled with a UV detector was used to detect cumene hydroperoxide. The column used is an Agilent Zorbax Eclipse XDB RPC8 column (150×4.6 mm) coupled with a UV detector fixed at 254 nm. The gradient used is detailed in the following table: […]
2 ml of cumene (AcrosOrganic) and 0.5 ml of methanol are mixed, azobisisobutyronitrile (AcrosOrganic) is added (2 equivalents) and the solution taken to 45° C. in order to accelerate the chemical reaction. The cumene hydroperoxide appears over time and is assayed by the HPLC method.
The technique used made it possible to compare the appearance of the cumene hydroperoxide in the presence of an antioxidant agent such as the claimed products and vitamin E used as reference product.

[4] = Competition with DMPO for the tBuO radical, DMPO-tBuO adduct signal measured by EPR
Procedure: The nitrones trap the radical species (R.; RO.) and allow their observation by electron paramagnetic resonance (EPR) (Degray J. et al. Electron Spin Resonance, Ed N. M. Atherton, Atheaeum Press Ltd; Cambridge, 1994, 14, 246).
The incubation of the DMPO (Interchim-U2469) (20 mM) in deoxygenated toluene (Sigma-Aldrich) in the presence of the tBuO (tert-butoxyl) radical, generated by photolysis, makes it possible to identify and quantify by EPR the signal of the DMPO-tBuO radical. This signal is inhibited in the presence of an equimolar quantity of 3,5-seco-4-nor-cholestane oxime.
The EPR signal allows integration in the form of an area of the signal of the DMPO-tBuO adduct and therefore a relative quantification of this radical entity.
All the experiments were carried out on an X-band Bruker ESP300 device (9.5 GHz) at ambient temperature. The solutions were studied in a quartz EPR tube.

[5] = system: perfused isolated rat heart; experiment: Perfused isolated rat heart, ischaemia/reperfusion, DMPO spin trapping in the coronary effluents (EPR)
Procedure: The animals used are male rats of the Sprague Dawley strain (Harlan et CERJ, France) of 250-300 g) fed ad libitum. The rats are anaesthetized by an intraperitoneal injection of sodium pentobarbital (50 mg/kg of body weight). The thoracic cavity is then opened and the heart rapidly removed and immersed in perfusion liquid (Krebs-Henseleit) at 4° C. in order to stop any contraction.
The heart with fatty tissues removed is then perfused according to Langendorff's technique by aortic retrograde route at a constant pressure of 90 cm H2O. A small incision in the pulmonary artery allows the flow and measurement of the coronary effluent over time (coronary flow rate). The time required for completion of the entire operation is two to three minutes. After ablation of the left auricle, a latex cuff is inserted into the left ventricle and filled with a volume of distilled water (50-60 μl) which remains constant during the experimental protocol, connected to a pressure sensor (GOULD) and to a differentiating recorder allowing the measurement of the following haemodynamic parameters: • intraventricular diastolic pressure (Pdia) • developed pressure of left ventricle Pdev=Psystolic−Pdia • dP/dt (first derivative of the developed pressure, cardiac contractility index in this model) • cardiac frequency (F) • cardiac work calculated according to the relationship W=Pdev×F […]

Molecule: CC(C)CCC[C@@H](C)[C@H]1CC[C@H]2[C@@H]3CC/C(=N\O)[C@](C)(CCCO)[C@H]3CC[C@]12C [3,5-seco-4-nor-cholestan-5-one oxime-3-ol]
- change in the quality of the product ([1]; after 1 year's storage at 25° C.): No change in the quality
- change in the quality of the product ([1]; after 6 months of storage at 40° C.): No change in the quality
- total impurities ([1]; 25° C. under 60% relative humidity, T0): 0.2%
- total impurities ([1]; 25° C. under 60% relative humidity, T12 months): 0.2%
- total impurities ([1]; 40° C. under 75% relative humidity, T0): 0.2%
- total impurities ([1]; 40° C. under 75% relative humidity, T6 months): 0.2%
- bioavailability [2]: 6%
- reduction of the oxidation of the cumene by oxygen (conclusion) [3]: approximately 40%
- % of reduction of the oxidation of the cumene ([3]; 50 μM): 25%
- Area of the signal, in relative units, of the cumene hydroperoxide ([3]; 50 μM): 300 relative units
- % of reduction of the oxidation of the cumene ([3]; 200 μM): 50%
- Area of the signal, in relative units, of the cumene hydroperoxide ([3]; 200 μM): 200 relative units
- activity compared with vitamin E ([3]; same concentrations): same order of magnitude
- % inhibition of the DMPO-tBuO radical ([4]; compound 20 mM + DMPO 20 mM, 200 s): 50%
- % inhibition of the DMPO-tBuO radical ([4]; compound 20 mM + DMPO 20 mM, 400 s): 66%
- Area of the DMPO-tBuO signal at 200 s in relative units ([4]; compound 20 mM + DMPO 20 mM, (t-BuO)2 20 mM, photolysis at 350 nm, 200 s): 3 relative units
- Area of the DMPO-tBuO signal at 400 s in relative units ([4]; compound 20 mM + DMPO 20 mM, (t-BuO)2 20 mM, photolysis at 350 nm, 400 s): 4 relative units
- effect on the DMPO-tBuO EPR signal ([4]; equimolar quantity to DMPO (20 mM), deoxygenated toluene): inhibited
- inhibition of the level of the DMPO-tBuO signal radical (conclusion) ([4]; equimolar with DMPO): ~60%
- kinetics of inhibition of the DMPO-tBuO signal (time) ([4]; rapid kinetics): less than 10 minutes
- extracellular production of free radical scavenging adducts (DMPO-OH) in the coronary effluents ([5]; 1 μM in Krebs buffer, DMPO 50 mM, reperfusion after ischaemia, p<0.05): large and significant reduction
- protection with respect to the vehicle (DMPO-OH adducts, FIG. 1) ([5]; 1 μM, two groups of 6 hearts): significant protection

Molecule: vitamin E [reference compound]
- % of reduction of the oxidation of the cumene ([3]; 100 μM): 39%
- Area of the signal, in relative units, of the cumene hydroperoxide ([3]; 100 μM): 245 relative units
